Data on 60 compounds can be found in patent publication US12404268B2, “2-heteroaryl aminoquinazolinone derivative” (Sumitomo Pharma Co., Ltd., priority 2020, dated 2025).

Each structure is given as a SMILES string.

This assay deals with neurons induced to differentiate from SCN1A gene deficient human iPS cells. Nature of the assay: Test for measuring hyperexcitation suppression activity (spontaneous calcium oscillation frequency). Format: cell-based. The note with it: Neuron; for inhibition at 1 µM / inhibition at 10 µM / inhibition at 0.1 µM / inhibition at 100 µM: Homo sapiens, read-out: inhibition rate; for IC50: SCN1A gene deficient human iPS cell-derived neurons, FLIPR Calcium 6, FDSS7000EX, read-out: IC50 (50% inhibitory concentration, frequency of spontaneous calcium oscillation). An excerpt: Test for Measuring Hyperexcitation Suppression Activity Using Neurons Induced to Differentiate from SCN1A Gene Deficient Human iPS Cells
(1) Induction of Differentiation from Human iPS cells to Neurons
Half of the culture solution was exchanged once every 3 to 4 days.
(2) Fluorescent Calcium Probe Treatment, Addition of Compound, and Evaluation of Intracellular Calcium Concentration
Half of the culture solution was removed on day 60 from induction of differentiation or thereafter. A medium for measurement comprising a fluorescent calcium probe (Molecular Device, product name: FLIPR Calcium 6 Assay Bulk Kit, cat #R8191) was added at an amount equal to the remaining medium. The culture was left standing for 30 minutes and subjected to measurement.
The test compounds were serially diluted with a dimethyl sulfoxide (DMSO) solution so that the final concentration would be 0.1 to 100 μM to prepare a concentrate with a concentration that is 6-fold of the final concentration.
The intensity of fluorescence of a calcium probe was measured over time with FDSS7000EX (Hamamatsu Photonics) to evaluate the change in intracellular calcium concentrations. First, the intensity of fluorescence was measured for 2 minutes. The compound solutions were then added using FDSS7000EX for an additional 8 minute measurement of fluorescence intensity. The frequency of spontaneous calcium oscillation was quantified as an indicator of nerve excitation. With the frequency for 2 minutes before the addition of the compound solutions as 100%, the ratio of frequency for the last 2 minutes after addition of the compound solutions was calculated.

In general, inhibition refers to how much of the control response was suppressed. Turning to `O=c1c2ccccc2nc(Nc2ccc3ocnc3c2)n1-c1ccccc1` [Example 1, 2-(benzo[d]oxazol-5-ylamino)-3-phenylquinazolin-4(3H)-one], the inhibition at 1 µM turned out to be 31%.
On to `Cn1cnc2ccc(Nc3nc4ccccc4c(=O)n3-c3ccccc3)cc21` [Example 2, 2-((1-methyl-1H-benzo[d]imidazol-6-yl)amino)-3-phenylquinazolin-4(3H)-one], for which the inhibition at 10 µM amounted to 57%.
Take `Cc1ccccc1-n1c(Nc2cncc(F)c2)nc2ccc(F)cc2c1=O` [Example 4, 6-fluoro-2-((5-fluoropyridin-3-yl)amino)-3-(o-tolyl)quinazolin-4(3H)-one]: the inhibition at 0.1 µM amounted to 88%.
As to `O=c1c2cc(Cl)ccc2nc(Nc2ccc3nccnc3c2)n1-c1ccccc1` [Example 5], the IC50 was 6100 nM.
As to `O=c1c2cc(Cl)ccc2nc(Nc2cncnc2)n1-c1ccccc1` [Example 6], the IC50 came to 400 nM.
For `O=c1c2cc(Cl)ccc2nc(Nc2ncccn2)n1-c1ccccc1` [Example 7], the IC50 is 6500 nM.
Same read-out and setting: in the case of `Cc1ccc(Nc2nc3ccc(Cl)cc3c(=O)n2-c2ccccc2)cn1` [Example 8] it was 1000 nM; in that of `O=c1c2cc(Cl)ccc2nc(Nc2cccnn2)n1-c1ccccc1` [Example 9], 600 nM; in that of `COc1ncccc1Nc1nc2ccc(Cl)cc2c(=O)n1-c1ccccc1` [Example 10, 6-chloro-2-((2-methoxypyridin-3-yl)amino)-3-phenylquinazolin-4(3H)-one], 300 nM.
Regarding `O=c1c2cc(Cl)ccc2nc(Nc2cnccc2C(F)(F)F)n1-c1ccccc1` [Example 11], the IC50 was 5800 nM.
For the compound `COc1ccc2nc(Nc3cccnc3)n(-c3ccccc3)c(=O)c2c1` [Example 13], the inhibition at 100 µM turned out to be 20%.
For `O=c1c2cc(Cl)ccc2nc(Nc2cccnc2)n1-c1ccccc1Cl` [Example 15, 6-chloro-3-(2-chlorophenyl)-2-(pyridin-3-ylamino)quinazolin-4(3H)-one], the inhibition at 1 µM worked out at 99%.
As for `O=c1c2cc(Cl)ccc2nc(Nc2ccc3nncn3c2)n1-c1ccccc1` [Example 16], the inhibition at 10 µM is 42%.
`COc1cc(F)cc2c(=O)n(-c3ccccc3)c(Nc3cccnc3)nc12` [Example 17]: the inhibition at 100 µM is 17%.
As to `O=c1c2cc(F)ccc2nc(Nc2cccnn2)n1-c1ccccc1` [Example 18], the IC50 stood at 800 nM.
Same read-out and setting: in the case of `O=c1c2cc(F)ccc2nc(Nc2ccnnc2)n1-c1ccccc1` [Example 19] it was 2200 nM; in that of `O=c1c2cc(F)ccc2nc(Nc2ccncn2)n1-c1ccccc1` [Example 20], 4900 nM.
`COCc1nccc(Nc2nc3ccc(Cl)cc3c(=O)n2-c2ccccc2)n1` [Example 21]: the inhibition at 10 µM turned out to be 27%.
Still for that read-out and setting: in the case of `COc1ccc(Nc2nc3ccc(Cl)cc3c(=O)n2-c2ccccc2)cn1` [Example 22] it was 70%.
Turning to `COc1ccncc1Nc1nc2ccc(Cl)cc2c(=O)n1-c1ccccc1` [Example 23], the inhibition at 1 µM was 61%.
As to `Cc1ncccc1Nc1nc2ccc(Cl)cc2c(=O)n1-c1ccccc1` [Example 24], the inhibition at 10 µM came to 54%.
With `O=c1c2cc(Cl)ccc2nc(Nc2ccc(F)cn2)n1-c1ccccc1` [Example 25], the inhibition at 10 µM worked out at 82%.
Regarding `Cc1cccnc1Nc1nc2ccc(Cl)cc2c(=O)n1-c1ccccc1` [Example 26], the inhibition at 1 µM is 23%.
With `Cc1cncc(Nc2nc3ccc(F)cc3c(=O)n2-c2ccccc2)c1` [Example 27], the inhibition at 1 µM was determined as 37%.
Turning to `COc1cncc(Nc2nc3ccc(F)cc3c(=O)n2-c2ccccc2)c1` [Example 28], the inhibition at 1 µM was found to be 32%.
As for `Cc1ncccc1Nc1nc2ccc(F)cc2c(=O)n1-c1ccccc1` [Example 29], the inhibition at 10 µM was 82%.
For the compound `Cc1ccc(Nc2nc3ccc(F)cc3c(=O)n2-c2ccccc2)cn1` [Example 30], the inhibition at 1 µM was 67%.
For `O=c1c2cc(Cl)ccc2nc(Nc2cccnc2)n1-c1ccccc1` [Example 31, 6-chloro-3-phenyl-2-(pyridin-3-ylamino)quinazolin-4(3H)-one], the inhibition at 1 µM worked out at 93%.
In the case of `O=c1c2cc(Cl)ccc2nc(Nc2ccncc2)n1-c1ccccc1` [Example 33], the inhibition at 10 µM worked out at 100%.
With `O=c1c2cc(Cl)ccc2nc(Nc2ccnnc2)n1-c1ccccc1` [Example 34], the inhibition at 10 µM was found to be 57%.
Take `O=c1c2cc(F)ccc2nc(Nc2cccnc2)n1-c1cccnc1` [Example 35, 6-fluoro-3-(pyridin-3-yl)-2-(pyridin-3-ylamino)quinazolin-4(3H)-one]: the inhibition at 1 µM is 88%.
Take `Cc1nccc(Nc2nc3ccc(Cl)cc3c(=O)n2-c2ccccc2)n1` [Example 36]: the inhibition at 10 µM was 32%.
Still for that read-out and setting: in the case of `COCc1nccc(Nc2nc3ccc(F)cc3c(=O)n2-c2ccccc2)n1` [Example 37] it was 68%.
In the case of `O=c1c2cc(Cl)ccc2nc(Nc2cnccn2)n1-c1ccccc1` [Example 38, 6-chloro-3-phenyl-2-(pyrazin-2-ylamino)quinazolin-4(3H)-one], the inhibition at 1 µM worked out at 88%.
For `O=c1c2cc(F)ccc2nc(Nc2cnccn2)n1-c1ccccc1` [Example 39, 6-fluoro-3-phenyl-2-(pyrazin-2-ylamino)quinazolin-4(3H)-one], the inhibition at 1 µM came out at 100%.
In the case of `N#Cc1cncc(Nc2nc3ccc(Cl)cc3c(=O)n2-c2ccccc2)c1` [Example 41, 5-((6-chloro-4-oxo-3-phenyl-3,4-dihydroquinazolin-2-yl)amino)nicotinonitrile], the inhibition at 1 µM turned out to be 95%.
Take `Cc1ccc2nc(Nc3cccnc3)n(-c3ccccc3)c(=O)c2c1` [Example 42, 6-methyl-3-phenyl-2-(pyridin-3-ylamino)quinazolin-4(3H)-one]: the inhibition at 1 µM was 98%.
Take `CC(C)c1ccc(Nc2nc3ccc(Cl)cc3c(=O)n2-c2ccccc2)cn1` [Example 44]: the inhibition at 10 µM was 81%.
For `O=c1c2cc(F)ccc2nc(Nc2cncc(Cl)c2)n1-c1ccccc1` [Example 45, 2-((5-chloropyridin-3-yl)amino)-6-fluoro-3-phenylquinazolin-4(3H)-one], the inhibition at 1 µM was 100%.
On to `Cc1cc(Nc2nc3ccc(Cl)cc3c(=O)n2-c2ccccc2)ncn1` [Example 46], for which the inhibition at 100 µM was 34%.
On to `Cc1ccncc1Nc1nc2ccc(F)cc2c(=O)n1-c1ccccc1` [Example 47], for which the inhibition at 10 µM came to 89%.
`O=c1c2cc(F)ccc2nc(Nc2cncc(C(F)(F)F)c2)n1-c1ccccc1` [Example 48]: the inhibition at 1 µM turned out to be 55%.
For `CCc1ccc(Nc2nc3ccc(Cl)cc3c(=O)n2-c2ccccc2)cn1` [Example 49], the inhibition at 10 µM was 34%.
As to `CCc1ccc(Nc2nc3ccc(F)cc3c(=O)n2-c2ccccc2)cn1` [Example 50], the inhibition at 10 µM turned out to be 100%.
For the compound `O=c1c2cc(Cl)ccc2nc(Nc2cccnc2)n1-c1ccccc1F` [Example 51, 6-chloro-3-(2-fluorophenyl)-2-(pyridin-3-ylamino)quinazolin-4(3H)-one], the inhibition at 1 µM stood at 100%.
With `O=c1c2cc(Cl)ccc2nc(Nc2ccc(C(F)(F)F)cn2)n1-c1ccccc1` [Example 53], the inhibition at 10 µM stood at 79%.
For `Cn1ncc2ccc(Nc3nc4ccccc4c(=O)n3-c3ccccc3)cc21` [Example 54, 2-((1-methyl-1H-indazol-6-yl)amino)-3-phenylquinazolin-4(3H)-one], the inhibition at 1 µM came to 95%.
For the compound `CC(C)n1c(Nc2cccnc2)nc2ccccc2c1=O` [Example 55], the inhibition at 10 µM worked out at 88%.
Consider `O=c1c2ccccc2nc(Nc2cccnc2)n1C1CCCC1` [Example 56], for which the inhibition at 10 µM was found to be 100%.
On to `O=c1c2ccccc2nc(Nc2cccnc2)n1C1CCCCC1` [Example 57], for which the inhibition at 1 µM was 21%.
For the compound `O=c1c2ccccc2nc(Nc2cccnc2)n1C1CCC(F)(F)CC1` [Example 58], the inhibition at 10 µM turned out to be 100%.
With `CC(C)n1c(Nc2cccnc2)nc2ccc(F)cc2c1=O` [Example 59], the inhibition at 1 µM stood at 39%.
Turning to `O=c1c2cc(F)ccc2nc(Nc2cccnc2)n1C1CCCC1` [Example 60], the inhibition at 10 µM stood at 100%.
Take `O=c1c2cc(F)ccc2nc(Nc2cccnc2)n1C1CCCCC1` [Example 61]: the inhibition at 10 µM came out at 79%.
For `O=c1c2cc(F)ccc2nc(Nc2cccnc2)n1C1CCC(F)(F)CC1` [Example 62], the inhibition at 1 µM was determined as 43%.
Turning to `O=c1c2ccccc2nc(Nc2cccc3cncn23)n1-c1ccccc1` [Example 63], the inhibition at 1 µM worked out at 23%.
Consider `O=c1c2ccccc2nc(Nc2cccn3ccnc23)n1-c1ccccc1` [Example 66], for which the inhibition at 10 µM was 62%.
For the compound `O=c1c2ccccc2nc(Nc2cccc3cnoc23)n1-c1ccccc1` [Example 67], the inhibition at 10 µM was found to be 100%.
As to `O=c1c2ccccc2nc(Nc2ccc3cncn3c2)n1-c1ccccc1` [Example 68], the inhibition at 10 µM stood at 100%.
Turning to `O=c1c2ccccc2nc(Nc2cccn3cncc23)n1-c1ccccc1` [Example 69, 2-(imidazo[1,5-a]pyridin-8-ylamino)-3-phenylquinazolin-4(3H)-one], the inhibition at 0.1 µM stood at 39%.
